Patent US8412460B2, “Methods and systems for characterizing a cellular constituent using response profiles” (priority 2000, dated 2013)
“Also recorded” adds a separate entry of the source.

Key:
S. cerevisiae = assay: Two-color cDNA microarray expression profiling of mutant or compound-treated yeast cultures (300-experiment compendium) with hierarchical clustering; assay type: cell-based; conditions: for mutant in the affected pathway whose profile the profile caused by the inhibitory compound resembles / DNA-damage/S-phase arrest inducible RNR2, RNR3 and RNR4 transcripts: FIG. 9B; for clustering of treatment profile with profiles from cell wall related mutants gas1Δ, spf1Δ, and amp1Δ: FIG. 11A
Description: Experimental (mutant or chemically treated) cultures were grown, harvested and processed in parallel with corresponding wild-type or control cultures. A complete list of experimental conditions is provided, below, in Table 2.
Several colonies of similar size were picked from freshly-streaked YAPD agar plates into liquid Synthetic Complete medium (SC) with 2% glucose, grown overnight at 30° C. to mid-log phase, diluted to 0.4-1.0×10^6 cells/mL, and grown an addition 5-7 hours until reaching 0.4-1.0[…], at which point they were pelleted by centrifugation from 2 minutes at room temperature and frozen in liquid nitrogen. The final optical densities of experimental and control cultures were matched as closely as possible. For experiments involving treatments with chemical compounds (including doxycycline), compounds were added at the beginning of the 5-7 hour final groth phase, with equal amounts of solvent or doxycyline added to control cultures as appropriate. Total RNA was prepared by phenol:chloroform extraction followed by ethanol precipitation as described previously (see, e.g., Marton et al., 1998, Nat. Med. 4:1293-1301) except that the step vortexing with glass beads was replaced with a 10 minute incubation at 65° C. followed by 1 minute of vortexing. Poly-A+ RNA purification, cDNA labeling, microarray production, and microarray hybridization and washing were also done as previously described (e.g., in Marton et al., supra) with measurements taken in fluor-reversed pairs. Arrays were scanned, images were quantitated and physical artifacts such as dust and salt residue were edited as described previously (see, e.g., Marton et aL, supra). Resulting data files were evaluated by a series of quality-control criteria relating, first, to the image itself and, second, to known biological artifacts. For purposes of illustrating the impact of biases, experiments flagged as containing biological artifacts were noted by were not excluded from subsequent data analysis steps.
Clustering analysis of the perturbation response profiles was done as described, below, in Section 5.2.4. Specifically, the analysis comprised two steps. First, profiles and transcripts were selected from a data matrix and, second, experiments and responsive genes were grouped by agglomerative hierarchical clustering (see Hartigan, 1975, Clustering Algorithms, John Wiley & Sons, New York) where the similarity measure is the error-weighted correlation coefficient provided in Equation 11 below. Genes and experiments (i.e., columns and rows, respectively, of the data matrix) were then re-ordered according to the resulting clustering similarity trees. A statistical significance (i.e., a P-value) was also calculated for each bifurcation in the resulting cluster tree using the methods for determining statistical significance of cluster groups which are also described, below, in Section 5.2.4.
Using a two-color cDNA microarray hybridization assay (see, Schena et al., 1995, Science 270:467-470), three hundred expression profiles were generated in S. cerevisiae in which transcript levels of a mutant or compound-treated culture were compared to that of a wild-type or mock-treated culture. 276 deletion mutants, 11 tetracycline-regulatable alleles of essential genes (Gari et al., 1997, Yeast 13:837-848) and 13 well-characterized compounds were profile. Sixty-nine of the 276 deletions were of uncharacterized open reading frames (ORFs). To allow direct comparison of the behavior of all genes in response to all mutations and treatments, experiments were performed under a single condition: cells were grown at 30° C. in liquid synthetic complete SC) medium plus 2% glucose to mid-log phase, with the final optical densities of the experimental and control cultures closely matched (see Section 6.1 above). […]

wild type yeast cells = conditions: levels that give maximal repression of promoter activity (10 micrograms/nil); cited from earlier work
[1] = target: T1, Erg2p, the sterol C-8 isomerase (Saccharomyces cerevisiae, UniProt P32352); assay: Sterol profiles by gas chromatography of the nonsaponifiable fraction; assay type: cell-based, yeast; conditions: dyclonine-treated cells, FIG. 11F
T1 construct: endogenous in cells; host or cells: S. cerevisiae, Saccharomyces Genome Deletion Consortium strain background
T1 sequence (P32352 whole entry): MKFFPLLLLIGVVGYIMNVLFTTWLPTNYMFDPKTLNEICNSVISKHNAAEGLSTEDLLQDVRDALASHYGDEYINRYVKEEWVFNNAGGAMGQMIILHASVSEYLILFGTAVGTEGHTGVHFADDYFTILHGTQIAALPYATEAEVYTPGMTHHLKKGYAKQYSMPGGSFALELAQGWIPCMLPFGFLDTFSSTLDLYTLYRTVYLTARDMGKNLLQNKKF
Description: Sterols were identified using pure standards and on the basis of relative retention times. Nonsaponifiables were isolated from yeast as previously described (Molzahn and Woods, 1972, J Gen. Microbiol. 72:339-348). Gas chromatography (GC) analyses of the nonsaponifiable fraction were analyzed on a HP5890 series II GC equipped with the HP chemstation software. The capillary column (DB5) was 15 m×0.25 mm i.d., 0.2 μm film thickness and was programmed from 195 fC to 300 fC (195 fC for 3 min., 5.5 fC/min. to 300 fC then held for 10 min.). The linear velocity was 30 cm/s using nitrogen and the carrier gas and all injections were run in the splitless mode.

yeast Erg2 enzyme = yeast Erg2 enzyme (Saccharomyces cerevisiae, UniProt P32352); conditions: cited from earlier work
yeast Erg2 enzyme, sequence (P32352 whole entry): as above

Molecule: O=CC[C@@H](O)[C@H](O)[C@H](O)CO [2-deoxy-D-glucose]
- mutant in the affected pathway whose profile the profile caused by the inhibitory compound resembles (S. cerevisiae): gas1
- clustering of treatment profile with profiles from cell wall related mutants gas1Δ, spf1Δ, and amp1Δ (S. cerevisiae): form a discrete cluster together with

Molecule: C/C=C1\NC(=O)[C@H]2CSSCC/C=C/[C@H](CC(=O)N[C@H](C(C)C)C(=O)N2)OC(=O)[C@H](C(C)C)NC1=O [FR901,228]
- mutant in the affected pathway whose profile the profile caused by the inhibitory compound resembles (S. cerevisiae): rpd3

Molecule: COS(C)(=O)=O [MMS]
- DNA-damage/S-phase arrest inducible RNR2, RNR3 and RNR4 transcripts (S. cerevisiae): induced

Molecule: C[C@@H]1C[C@@H]([C@H](O)CC2CC(=O)NC(=O)C2)C(=O)[C@@H](C)C1 [cycloheximide]
- mutant in the affected pathway whose profile the profile caused by the inhibitory compound resembles (S. cerevisiae): yef3
- clustering of treatment profile with ribosome subunit deletion profiles (S. cerevisiae; all regulations greater than 1.5-fold masked, small regulations used as basis of clustering): this profile cluster gains additional translation-related experiments

Molecule: C[C@H]1c2cccc(O)c2C(=O)C2=C(O)[C@]3(O)C(=O)C(C(N)=O)=C(O)[C@@H](N(C)C)[C@@H]3[C@@H](O)[C@@H]21 [doxycycline]
- effect on the growth rate on wild type yeast cells (wild type yeast cells): no significant effect

Molecule: CCCCOc1ccc(C(=O)CCN2CCCCC2)cc1 [dyclonine]
- sterol accumulating in treated cells and enzyme inferred to be inhibited (GC analysis) [1]: buildup of fecosterol, indicating inhibition of Erg2p
- sterol content of treated cells (GC analysis) [1]: abnormal
- expression profile of drug-treated yeast compared with the compendium profiles (S. cerevisiae; six hour treatment with 0.063% dyclonine (FIG. 11E)): correlates most closely with the response profile obtained from a cell line in which the erg2p gene has been “knocked out.”; also recorded: most closely resembled profiles resulting from perturbation of the ergosterol pathway

Molecule: N[C@H]1C(O)O[C@H](CO)[C@@H](O)[C@@H]1O (stereo partly shown) [glucosamine]
- mutant in the affected pathway whose profile the profile caused by the inhibitory compound resembles (S. cerevisiae): gas1
- clustering of treatment profile with profiles from cell wall related mutants gas1Δ, spf1Δ, and amp1Δ (S. cerevisiae): form a discrete cluster together with

Molecule: O=C(CCCN1CCC(O)(c2ccc(Cl)cc2)CC1)c1ccc(F)cc1 [haloperidol]
- binding and inhibition of the yeast Erg2 enzyme (yeast Erg2 enzyme): binds and inhibits

Molecule: NC(=O)NO [hydroxyurea]
- DNA-damage/S-phase arrest inducible RNR2, RNR3 and RNR4 transcripts (S. cerevisiae): induced
- mutant in the affected pathway whose profile the profile caused by the inhibitory compound resembles (S. cerevisiae): rnr1

Molecule: CCC(C)n1ncn(-c2ccc(N3CCN(c4ccc(OCC5COC(Cn6cncn6)(c6ccc(Cl)cc6Cl)O5)cc4)CC3)cc2)c1=O (stereo not shown) [itraconzaole]
- mutant in the affected pathway whose profile the profile caused by the inhibitory compound resembles (S. cerevisiae): erg/11

Molecule: CC[C@H](C)C(=O)O[C@H]1C[C@@H](C)C=C2C=C[C@H](C)[C@H](CC[C@@H]3C[C@@H](O)CC(=O)O3)[C@H]21 [lovastatin]
- correlation of transcript profile of compound treatment with profile of reduced expression of the target gene (S. cerevisiae; FIG. 9E): correlates highly with the profile produced by reducing expression of HMG2

Molecule: tunicamycin
- mutant in the affected pathway whose profile the profile caused by the inhibitory compound resembles (S. cerevisiae): gas1
- clustering of treatment profile with profiles from cell wall related mutants gas1Δ, spf1Δ, and amp1Δ (S. cerevisiae): form a discrete cluster together with
